For one data set, the system named is CAKI-1. In words: NCI-60 SRB screen. The settings on record: Homo sapiens; CAKI-1, 10^–5 Molar; read-out: Percent growth inhibition. Format: cell-based. The protocol:
(§1) All newly synthesized compounds were selected and screened for anticancer activity against 60 human cancer cell lines representing 9 types of tumors including leukemia, melanoma, lung, colon, CNS, ovarian, renal, prostate, and breast cancers at the National Cancer Institute (NCI), Bethesda, USA. Screening was performed utilizing a single dose (10^−5 M concentration) and cells were incubated for 48 h. The end point was determined using sulforhodamine B (SRB) dye.
(§2) In this study, all the 16 newly synthesized compounds were submitted to the National Cancer Institute (USA) for anticancer evaluation and were selected and evaluated using 60 different human tumor cell lines representing lung, colon, CNS, ovarian, renal, prostate, breast cancers as well as leukemia and melanoma. A single dose (10^–5 Molar) was used for the initial screening for evaluation of anticancer activity. The 60 human cancer cell lines were provided by the national cancer institute biomedical research campus in Frederick, Maryland.
(§3) 60 different human cancer cell lines were utilized to screen the newly synthesized compounds for anticancer activity according to the previously reported standard procedure[24]–[26] as follows: • 96 well microtiter plates were used to inoculate the cells at […] ranging from 4000–5000 cells/well depending on the replication time of individual cell lines. Roswell Park Memorial Institute culture medium (RPMI 1640 medium) containing 2 mM L-glutamine and fetal bovine serum was used to grow the cells at 37 °C, 5% CO2, 95% air and 100% relative humidity for 24 h. • Fixation of cells in two plates of each cell line in situ was done using trichloroacetic acid (TCA). This represented the measurement of cell population at the time of drug addition (Tz). • Dimethyl sulfoxide (DMSO) was used to dissolve the synthesized compounds at 400-fold the desired final maximum concentration and frozen prior to use. This frozen concentrate was melted and diluted to twice the final concentration with complete medium containing 50 µg/mL gentamycin at time of drug addition. • The final compound concentration was obtained by adding 100 µL of the synthesized compounds to the appropriate microtiter wells already containing 100 µL followed by incubation of the plates at 37 °C, 5% CO2, 95% air and 100% relative humidity for 48 h. • Fixation of the cells was achieved by gentle addition of 50 µL of cold 50% (w/v) TCA followed by incubation for 60 min at 4 °C. The supernatant was then discarded and the plates are washed 5 times with tap water and air dried. • Sulphorhodamine B (SRB) solution (100 µL) at 0.4% (w/v) in 1% acetic acid was added to each plate followed by incubation for 10 min at room temperature. The unbound dye was then removed by washing five times with 1% acetic acid and plates were air dried. • Dissolution of the bound stain was done using […] trizma base and the absorbance was read at […] wavelength using an automated plate reader. • The percentage growth inhibition was calculated as follows: Ti-Tz/C-Tz×100forconcentrationswhichTi≥Tz Ti-Tz/Tz×100forconcentrationswhichTi<Tz • Time zero (Tz) • Control growth (C) • Test growth in the presence of drug (Ti)

A further data set concerns HS 578T. As to the kind of experiment: NCI-60 SRB screen. The note with it: Homo sapiens, 10^–5 Molar, read-out: Percent growth inhibition. Format: cell-based. The procedure: as §1, §2, §3
For a further data set, the system named is IGROV1. As to the kind of experiment: NCI-60 SRB screen. It counts as cell-based. The settings on record: Homo sapiens, IGROV-1; IGROV1, 10^–5 Molar; read-out: Percent growth inhibition. The protocol: as §1, §2, §3
A further data set concerns LOX IMVI. In words: NCI-60 SRB screen. The settings on record: Homo sapiens, 10^–5 Molar, read-out: Percent growth inhibition. It counts as cell-based. The protocol: as §1, §2, §3
The test system of the next data set is MCF7. As to the kind of experiment: NCI-60 SRB screen. Format: cell-based. The note with it: Homo sapiens; MCF7, 10^–5 Molar; read-out: Percent growth inhibition. The protocol: as §1, §2, §3
The next data set concerns MDA-MB-468. In words: NCI-60 SRB screen. The note with it: Homo sapiens; MDA-MB-468, 10^–5 Molar; read-out: Percent growth inhibition. Format: cell-based. The protocol: as §1, §2, §3
The test system of the next data set is NCI-H226. In words: NCI-60 SRB screen. The note with it: Homo sapiens; NCI-H226, 10^–5 Molar; read-out: Percent growth inhibition. It counts as cell-based. The procedure: as §1, §2, §3
The next data set has as its system OVCAR-5. In words: NCI-60 SRB screen. The note with it: Homo sapiens; OVCAR-5, 10^–5 Molar; read-out: Percent growth inhibition. Format: cell-based. The procedure:
as §1, §2, §3

The test system of another data set is PC-3. In words: NCI-60 SRB screen. The note with it: Homo sapiens; PC-3, 10^–5 Molar; read-out: Percent growth inhibition. Format: cell-based. The procedure: as §1, §2, §3
The subject of another data set is RXF 393. As to the kind of experiment: NCI-60 SRB screen. It counts as cell-based. The note with it: Homo sapiens, 48 h; RXF 393, 10^–5 Molar; read-out: Percent growth inhibition. The protocol:
as §1, §2, §3

Another data set has as its system SF-268. In words: NCI-60 SRB screen. It counts as cell-based. The settings on record: Homo sapiens; SF-268, 10^–5 Molar; read-out: Percent growth inhibition. The procedure:
as §1, §2, §3

A further data set concerns SF-539. In words: NCI-60 SRB screen. It counts as cell-based. The note with it: Homo sapiens; SF-539, 10^–5 Molar; read-out: Percent growth inhibition. The procedure:
as §1, §2, §3

A further data set concerns SN12C. As to the kind of experiment: NCI-60 SRB screen. Format: cell-based. The settings on record: Homo sapiens, 10^–5 Molar, read-out: Percent growth inhibition. The protocol: as §1, §2, §3
The subject of the next data set is SNB-19. As to the kind of experiment: NCI-60 SRB screen. Format: cell-based. The settings on record: Homo sapiens; SNB-19, 10^–5 Molar; read-out: Percent growth inhibition. The procedure: as §1, §2, §3
The test system of the next data set is SNB-75. In words: NCI-60 SRB screen. Format: cell-based. The settings on record: Homo sapiens; SNB-75, 10^–5 Molar; read-out: Percent growth inhibition. The procedure: as §1, §2, §3
For the next data set, the system named is SW-620. As to the kind of experiment: NCI-60 SRB screen. It counts as cell-based. The settings on record: Homo sapiens; SW-620, 10^–5 Molar; read-out: Percent growth inhibition. The procedure: as §1, §2, §3
For another data set, the system named is T-47D. In words: NCI-60 SRB screen. Format: cell-based. The note with it: Homo sapiens, T47D, 10^–5 Molar, read-out: Percent growth inhibition. The protocol:
as §1, §2, §3

The subject of another data set is UACC-62. As to the kind of experiment: NCI-60 SRB screen. It counts as cell-based. The settings on record: Homo sapiens; UACC-62, 10^–5 Molar; read-out: Percent growth inhibition. The protocol: as §1, §2, §3
In a further data set the test system is UO-31. In words: NCI-60 SRB screen. The settings on record: Homo sapiens; UO-31, 10^–5 Molar; read-out: Percent growth inhibition. Format: cell-based. The procedure:
as §1, §2, §3

The next data set relates to melanoma SK-MEL-5. In words: NCI-60 SRB screen. The note with it: Homo sapiens; SK-MEL-5, 10^–5 Molar; read-out: Percent growth inhibition. It counts as cell-based. The procedure:
as §1, §2, §3

For data set [1], the system named is 60 human cancer cell lines. In words: NCI-60 SRB screen, whole panel. It counts as cell-based. The settings on record: Homo sapiens, 48 h; One Dose Mean Graph, Conc 1.00E-5 Molar; read-out: Mean Growth Percent.
The test system of a further data set is 786-0. In words: NCI-60 SRB screen. Format: cell-based. The note with it: Homo sapiens; 786-0, 10^–5 Molar; read-out: Percent growth inhibition. The protocol:
as §1, §2, §3

In a further data set the test system is MDA-MB-231/ATCC. As to the kind of experiment: NCI-60 SRB screen. It counts as cell-based. The note with it: Homo sapiens, 10^–5 Molar, read-out: Percent growth inhibition. The procedure: as §1, §2, §3
A further data set deals with NCI-H322M. In words: NCI-60 SRB screen. Format: cell-based. The note with it: Homo sapiens, 10^–5 Molar, read-out: Percent growth inhibition. The procedure:
as §1, §2, §3

In a further data set the test system is leukemia SR. In words: NCI-60 SRB screen. The settings on record: Homo sapiens; SR, 10^–5 Molar; read-out: Percent growth inhibition. It counts as cell-based. The procedure:
as §1, §2, §3

A further data set concerns HCT-15. In words: NCI-60 SRB screen. Format: cell-based. The settings on record: Homo sapiens; HCT-15, 10^–5 Molar; read-out: Percent growth inhibition. The procedure:
as §1, §2, §3

The next data set has as its system K-562. In words: NCI-60 SRB screen. Format: cell-based. The note with it: Homo sapiens, K562; K-562, 10^–5 Molar; read-out: Percent growth inhibition. The procedure:
as §1, §2, §3

SMILES strings stand for the structures.

The term inhibition denotes the relative decrease from the control value, in per cent. Broadly, the melting point is the temperature of the solid-liquid transition.

For the molecule `CCn1cc(C(=O)O)c(=O)c2cc(F)c(N3CCN(CC(=O)Nc4ccc(S(=O)(=O)Nc5nccc(C)n5)cc4)C(C)C3)c(F)c21` (stereo not shown) [Compound 5f, 1-Ethyl-6,8-difluoro-7-(3-methyl-4-(2-((4-(N-(4-methylpyrimidin-2-yl)sulfamoyl)phenyl)amino)-2-oxoethyl)piperazin-1-yl)-4-oxo-1,4-dihydroquinoline-3-carboxylic acid], the melting point fell in the range of 247 to 249 °C. Also, the inhibition at 10 µM in the data set on CAKI-1 came to 11.4%. In the data set with HS 578T, the inhibition at 10 µM turned out to be 0.4%. Besides, in the data set with IGROV1, the inhibition at 10 µM amounted to 0.3%. Moreover, in the data set with LOX IMVI, the inhibition at 10 µM was 4.41%. Moreover, the inhibition at 10 µM in the data set on MCF7 worked out at 3.33%. Besides, the inhibition at 10 µM in the data set on MDA-MB-468 worked out at 3.63%. Also, in the data set with NCI-H226, the inhibition at 10 µM is 2.92%. For the same molecule, the inhibition at 10 µM in the data set on OVCAR-5 came out at 1.48%. Further, the inhibition at 10 µM in the data set on PC-3 is 2.04%. Moreover, the inhibition at 10 µM in the data set with RXF 393 was 0.98%. Further, in the data set on SF-268, the inhibition at 10 µM was 1.74%. For the same molecule, the inhibition at 10 µM in the data set on SF-539 came out at 0.79%. In addition, the inhibition at 10 µM in the data set with SN12C came out at 1.96%. For the same molecule, in the data set on SNB-19, the inhibition at 10 µM was 1.26%. Further, the inhibition at 10 µM in the data set with SNB-75 came to 4.26%. Moreover, the inhibition at 10 µM in the data set with SW-620 was found to be 3.4%. In addition, the inhibition at 10 µM in the data set on T-47D came out at 1.12%. Moreover, in the data set with UACC-62, the inhibition at 10 µM was determined as 5.79%. For the same molecule, the inhibition at 10 µM in the data set with UO-31 was 16.7%. Further, in the data set on melanoma SK-MEL-5, the inhibition at 10 µM was determined as 193%. Also, in [1], the activity at 10 µM is 102%.
Consider `CCn1cc(C(=O)O)c(=O)c2cc(F)c(N3CCN(C=O)C(C)C3)c(F)c21` (stereo not shown) [Compound 6, 1-Ethyl-6,8-difluoro-7-(4-formyl-3-methylpiperazin-1-yl)-4-oxo-1,4-dihydroquinoline-3-carboxylic acid], for which the melting point was 289 to 291 °C. Also, the inhibition at 10 µM in the data set on 786-0 is 1.77%. Also, the inhibition at 10 µM in the data set on CAKI-1 came out at 4.66%. The inhibition at 10 µM in the data set on LOX IMVI came to 6.49%. The inhibition at 10 µM with MDA-MB-231/ATCC was found to be 0.72%. Moreover, the inhibition at 10 µM in the data set with MDA-MB-468 was determined as 2.93%. Moreover, the inhibition at 10 µM in the data set with NCI-H226 was determined as 4.91%. For the same molecule, the inhibition at 10 µM with NCI-H322M came out at 2.38%. Moreover, the inhibition at 10 µM in the data set with SF-268 was 2.98%. The inhibition at 10 µM with SNB-75 was 5.57%. Also, the inhibition at 10 µM in the data set with SW-620 is 3.48%. In addition, in the data set with UACC-62, the inhibition at 10 µM was found to be 7.29%. Further, in the data set with UO-31, the inhibition at 10 µM was 12.9%. For the same molecule, the inhibition at 10 µM in the data set on leukemia SR was found to be 27.8%. For the same molecule, the activity at 10 µM in data set [1] is 103%.
On to `CCn1cc(C(=O)O)c(=O)c2cc(F)c(N3CCN(CC(=O)Nc4ccc(S(=O)(=O)Nc5ncccn5)cc4)C(C)C3)c(F)c21` (stereo not shown) [Compound 5e, 1-Ethyl-6,8-difluoro-7-(3-methyl-4-(2-oxo-2-((4-(N-(pyrimidin-2-yl)sulfamoyl)phenyl)amino)ethyl)piperazin-1-yl)-4-oxo-1,4-dihydroquinoline-3-carboxylic acid], for which the melting point lay within 282 to 284 °C. The inhibition at 10 µM with CAKI-1 worked out at 7.59%. In addition, in the data set with HCT-15, the inhibition at 10 µM stood at 2.43%. Besides, the inhibition at 10 µM in the data set with HS 578T came to 2.04%. The inhibition at 10 µM in the data set with K-562 came to 1.07%. In the data set on MCF7, the inhibition at 10 µM was determined as 5.24%. In the data set on SF-268, the inhibition at 10 µM worked out at 1.55%. Further, in the data set on SN12C, the inhibition at 10 µM amounted to 3.07%. The inhibition at 10 µM in the data set with SNB-75 was found to be 6.39%. In the data set with UACC-62, the inhibition at 10 µM turned out to be 7.88%. The inhibition at 10 µM with UO-31 was 9.64%. Besides, the activity at 10 µM in data set [1] turned out to be 106%.
